Assay results reported in PubChem BioAssay AID296 (DTP/NCI, 2004).
Records with an inconclusive call do not appear.

Tested on: MX-1 breast xenograft, nude mice, tumor weight T/C
Test: NCI In Vivo Anticancer Drug Screen. Data for tumor model Human Mammary Carcinoma MX-1 Xenograft (intrarenal inoculation) in NU/NU Swiss (nude) mice
Conditions: endpoint: mean tumor weight change, higher = larger tumour
Summary of the method: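 Antitumour effect measured in vivo against vehicle controls, expressed as T/C.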

[1] = dose: 150.0 mg/kg/injection, schedule: Q04DX003 (ip), vehicle: saline
[2] = dose: 300.0 mg/kg/injection, schedule: Q04DX003 (ip), vehicle: saline
[3] = dose: 600.0 mg/kg/injection, schedule: Q04DX003 (ip), vehicle: saline
[4] = dose: 300.0 mg/kg/injection, schedule: Q04DX003 (sc), vehicle: saline with Tween-80
[5] = dose: 600.0 mg/kg/injection, schedule: Q04DX003 (sc), vehicle: saline with Tween-80

Cc1c(N)nc(C(CC(N)=O)NCC(N)C(N)=O)nc1C(=O)NC(C(=O)NC(C)C(O)CC(=O)NC(C(=O)NC(OC1OC(C)C(N)C(O)C1O)C(O)c1nc(-c2nc(C(=O)NCCCC(N)CC(=O)NCCCNCCCCN)cs2)cs1)C(C)O)C(OC1OC(CO)C(O)C(O)C1OC1OC(CO)C(O)C(OC(N)=O)C1O)c1cnc[nH]1 (centres undefined)
T/C (dose: 8.0 mg/kg/injection, schedule: Q04DX003 (sc), vehicle: saline): 47 % of control | T/C (dose: 16.0 mg/kg/injection, schedule: Q04DX003 (sc), vehicle: saline): 40 % of control

O=[Te]=O
T/C (dose: 12.5 mg/kg/injection, schedule: Q04DX003 (sc), vehicle: suspension in saline): 91 % of control | T/C (dose: 25.0 mg/kg/injection, schedule: Q04DX003 (sc), vehicle: suspension in saline): 79 % of control | T/C (dose: 50.0 mg/kg/injection, schedule: Q04DX003 (sc), vehicle: suspension in saline): 122 % of control

CC1=NN(c2cccc(S(=O)(=O)O)c2)C(=O)C1N=Nc1cc(Cl)cc(S(=O)(=O)O)c1O.CC1=NN(c2cccc(S(=O)(=O)O)c2)C(=O)C1N=Nc1cc(Cl)cc(S(=O)(=O)O)c1O.[Cr] (centres undefined)
T/C [1]: 151 % of control | T/C [2]: 94 % of control | T/C [3]: 50 % of control

CC[C@@H](C)[C@@H]1NC(=O)C(NC(=O)C(CC(C)C)N(C)C(=O)C2CCCN2C(=O)C(C)O)C(C)OC(=O)C(Cc2ccc(OC)cc2)N(C)C(=O)C2CCCN2C(=O)C(CC(C)C)NC(=O)C(C)C(=O)C(C(C)C)OC(=O)C[C@H]1O (some centres undefined)
T/C (dose: 300.0 micrograms/kg/injection, schedule: Q04DX003 (sc), vehicle: distilled water + alcohol): 91 % of control | T/C (dose: 600.0 micrograms/kg/injection, schedule: Q04DX003 (sc), vehicle: distilled water + alcohol): 157 % of control | T/C (dose: 1200.0 micrograms/kg/injection, schedule: Q04DX003 (sc), vehicle: distilled water + alcohol): 27 % of control

COC(=O)C(Cl)(Cl)N=Nc1c(Cl)cc(Cl)c(C)c1Cl
T/C [4]: 78 % of control | T/C [5]: 74 % of control

S=C=NCCc1ccccc1
T/C (dose: 25.0 mg/kg/injection, schedule: Q01DX010 (sc), vehicle: saline with Tween-80): 161 % of control | T/C (dose: 50.0 mg/kg/injection, schedule: Q01DX010 (sc), vehicle: saline with Tween-80): 156 % of control | T/C (dose: 100.0 mg/kg/injection, schedule: Q01DX010 (sc), vehicle: saline with Tween-80): 72 % of control | T/C (dose: 200.0 mg/kg/injection, schedule: Q01DX010 (sc), vehicle: saline with Tween-80): 113 % of control

C[N+](C)(C)c1ncnc2c1ncn2C1CCCO1 (centres undefined)
T/C (dose: 0.25 mg/kg/injection, schedule: Q01DX010 (sc), vehicle: saline): 83 % of control | T/C (dose: 0.5 mg/kg/injection, schedule: Q01DX010 (sc), vehicle: saline): 112 % of control | T/C (dose: 1.0 mg/kg/injection, schedule: Q01DX010 (sc), vehicle: saline): 50 % of control | T/C (dose: 2.0 mg/kg/injection, schedule: Q01DX010 (sc), vehicle: saline): 163 % of control

c1cn[nH]c1
T/C (dose: 75.0 mg/kg/injection, schedule: Q04DX003 (ip), vehicle: saline): 106 % of control | T/C [1]: 96 % of control | T/C [2]: 69 % of control | T/C [3]: 71 % of control

Cc1cc2nc3c(=O)[nH]c(=O)nc-3n(CC(O)C(O)C(O)C(O)CO)c2cc1C (centres undefined)
T/C [4]: 93 % of control | T/C [5]: 89 % of control | T/C (dose: 1200.0 mg/kg/injection, schedule: Q04DX003 (sc), vehicle: saline with Tween-80): 89 % of control | T/C (dose: 2400.0 mg/kg/injection, schedule: Q04DX003 (sc), vehicle: saline with Tween-80): 91 % of control

COC(=O)C(F)C(Br)C(=O)OC (centres undefined)
T/C (dose: 18.75 mg/kg/injection, schedule: Q04DX003 (sc), vehicle: saline with Tween-80): 52 % of control | T/C (dose: 37.5 mg/kg/injection, schedule: Q04DX003 (sc), vehicle: saline with Tween-80): 49 % of control | T/C (dose: 75.0 mg/kg/injection, schedule: Q04DX003 (sc), vehicle: saline with Tween-80): 59 % of control

C/C=C/C=C/c1cc2cc3c(c(O)c2c(=O)[nH]1)C1(CC3)C(O)=c2c(=O)c3c(=O)cc(OC)c(=O)c=3c(=O)c2=C1O (centres undefined)
T/C (dose: 8.0 mg/kg/injection, schedule: Q01DX010 (sc), vehicle: DMSO): 122 % of control | T/C (dose: 16.0 mg/kg/injection, schedule: Q01DX010 (sc), vehicle: DMSO): 91 % of control
